# According to US20070167631A1, “Novel herbicides” (priority 2003, published 2007):
# Key:
# Type in all cases: in vivo
# Maize [1] = assay: Comparison test with prior art compound A, post-emergence herbicidal action (Example B4); conditions: 125 g/ha, crop plant, rating scale 10=total damage, 0=no action
# Excerpt: (§1) The post-emergence herbicidal action of compound no. 1.095 according to the invention was compared with compound A, which is described as compound no.
# Sida = assay: as above; conditions: 125 g/ha, rating scale 10=total damage, 0=no action
# Excerpt: as §1
# Sinapis = assay: as above; conditions: 125 g/ha, rating scale 10=total damage, 0=no action
# Excerpt: as §1
# Stellaria [2] = assay: as above; conditions: 125 g/ha, rating scale 10=total damage, 0=no action
# Excerpt: as §1
# Wheat [3] = assay: as above; conditions: 125 g/ha, crop plant, rating scale 10=total damage, 0=no action
# Excerpt: as §1
# Galium = assay: Comparison test with prior art compound B, post-emergence herbicidal action (Example B5); conditions: 125 g/ha, rating scale 10=total damage, 0=no action
# Excerpt: (§2) The post-emergence herbicidal action of compound no. 1.096 according to the invention was compared with compound B, which is described as compound no. 2.088 on page 83,
# Ipomea = assay: as above; conditions: 125 g/ha, rating scale 10=total damage, 0=no action
# Excerpt: as §2
# Maize [4] = assay: as above; conditions: 125 g/ha
# Excerpt: as §2
# Polygonum = assay: as above; conditions: 125 g/ha, rating scale 10=total damage, 0=no action
# Excerpt: as §2
# Stellaria [5] = assay: as above; conditions: 125 g/ha, rating scale 10=total damage, 0=no action
# Excerpt: as §2
# Wheat [6] = assay: as above; conditions: 125 g/ha
# Excerpt: as §2
# Abutilon = assay: Pre-emergence herbicidal action (Example B1); conditions: 250 g/ha, after 4 weeks, rating scale 10=total damage, 0=no action
# Description: (§3) Monocotyledonous and dicotyledonous test plants are sown in standard soil in pots or seed trays. Immediately after sowing, the test compounds, in the form of an aqueous suspension (prepared from a wettable powder (Example F3, b) according to WO 97/34485) or in the form of an emulsion (prepared from an emulsifiable concentrate (Example F1, c) according to WO 97/34485), are applied by spraying in a concentration of 250 g/ha. The test plants are then grown in a greenhouse under optimum conditions. After a test duration of 4 weeks, the test is evaluated in accordance with a scale of eleven ratings (10=total damage, 0=no action). Ratings of from 10 to 7 (especially from 10 to 8) indicate very good to good herbicidal action.
# Amaranthus [7] = assay: Pre-emergence herbicidal action (Example B1); conditions: 250 g/ha, after 4 weeks, rating scale 10=total damage, 0=no action
# Description: as §3
# Chenopodium [8] = assay: Pre-emergence herbicidal action (Example B1); conditions: 250 g/ha, after 4 weeks, rating scale 10=total damage, 0=no action
# Description: as §3
# Digitaria = assay: Pre-emergence herbicidal action (Example B1); conditions: 250 g/ha, after 4 weeks, rating scale 10=total damage, 0=no action
# Description: as §3
# Echinochloa [9] = assay: Pre-emergence herbicidal action (Example B1); conditions: 250 g/ha, after 4 weeks, rating scale 10=total damage, 0=no action
# Description: as §3
# Panicum [10] = assay: Pre-emergence herbicidal action (Example B1); conditions: 250 g/ha, after 4 weeks, rating scale 10=total damage, 0=no action
# Description: as §3
# Scirpus = assay: Pre-emergence herbicidal action (Example B1); conditions: 250 g/ha, after 4 weeks, rating scale 10=total damage, 0=no action
# Description: as §3
# Amaranthus [11] = assay: Post-emergence herbicidal action (Example B2); conditions: 250 g/ha, after about 18 days, rating scale 10=total damage, 0=no action
# Outline: (§4)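 Greenhouse-grown plants at the 4- to 6-leaf stage sprayed with compound as wettable-powder suspension or emulsifiable-concentrate emulsion at 125 and 250 g a.i./ha (500 L water/ha). Damage scored after about 18 days on an 11-point scale (0 = no action, 10 = total damage).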
# Chenopodium [12] = assay: Post-emergence herbicidal action (Example B2); conditions: 250 g/ha, after about 18 days, rating scale 10=total damage, 0=no action
# Outline: as §4
# Echinochloa [13] = assay: Post-emergence herbicidal action (Example B2); conditions: 250 g/ha, after about 18 days, rating scale 10=total damage, 0=no action
# Outline: as §4
# Euphorbia = assay: Post-emergence herbicidal action (Example B2); conditions: 250 g/ha, after about 18 days, rating scale 10=total damage, 0=no action
# Outline: as §4
# Panicum [14] = assay: Post-emergence herbicidal action (Example B2); conditions: 250 g/ha, after about 18 days, rating scale 10=total damage, 0=no action
# Outline: as §4
# Stellaria [15] = assay: Post-emergence herbicidal action (Example B2); conditions: 250 g/ha, after about 18 days, rating scale 10=total damage, 0=no action
# Outline: as §4
# Xanthium = assay: Post-emergence herbicidal action (Example B2); conditions: 250 g/ha, after about 18 days, rating scale 10=total damage, 0=no action
# Outline: as §4
# [16] = crop plant, rating scale 10=total damage, 0=no action
Compound,Pre-emergence action: Abutilon (Abutilon),Pre-emergence action: Amaranthus (Amaranthus [7]),Pre-emergence action: Chenopodium (Chenopodium [8]),Pre-emergence action: Digitaria (Digitaria),Pre-emergence action: Echinochloa (Echinochloa [9]),Pre-emergence action: Panicum (Panicum [10]),Pre-emergence action: Scirpus (Scirpus),Post-emergence action: Amaranthus (Amaranthus [11]),Post-emergence action: Chenopodium (Chenopodium [12]),Post-emergence action: Echinochloa (Echinochloa [13]),Post-emergence action: Euphorbia (Euphorbia),Post-emergence action: Panicum (Panicum [14]),Post-emergence action: Stellaria (Stellaria [15]),Post-emergence action: Xanthium (Xanthium),further results
"O=C1CCCC(O)=C1C(=O)c1ncc(C(F)(F)F)cc1Cl [A, reference compound]",–,–,–,–,–,–,–,–,–,–,–,–,–,–,Post-emergence herbicidal action: Maize (Maize [1]): 0; Post-emergence herbicidal action: Sida (Sida): 2; Post-emergence herbicidal action: Sinapis (Sinapis): 6; Post-emergence herbicidal action: Stellaria (Stellaria [2]): 9; Post-emergence herbicidal action: Wheat (Wheat [3]): 0
"COc1nc(C(=O)C2=C(O)C3CCC(C3)C2=O)ccc1C(F)(F)F (stereo not drawn) [B, reference compound]",–,–,–,–,–,–,–,–,–,–,–,–,–,–,Post-emergence herbicidal action: Galium (Galium): 4; Post-emergence herbicidal action: Ipomea (Ipomea): 6; Post-emergence herbicidal action: Maize (Maize [4]; [16]): 2; phytotoxicity to maize (Maize [4]; post-emergence): 20%; Post-emergence herbicidal action: Polygonum (Polygonum): 4; Post-emergence herbicidal action: Stellaria (Stellaria [5]): 6; Post-emergence herbicidal action: Wheat (Wheat [6]; [16]): 2; phytotoxicity to wheat (Wheat [6]; post-emergence): 20%
CC1(C)C(=O)C(C(=O)c2ccc(C(F)(F)F)c(N3CCSCC3)n2)=C(O)C(C)(C)C1=O [Compound 2.078],10,8,10,10,10,10,0,7,10,8,7,5,10,7,–
CC1(C)C(=O)C(C(=O)c2ccc(C(F)(F)F)c(C3(C)OCCO3)n2)=C(O)C(C)(C)C1=O [Compound 2.191],10,7,9,7,10,10,3,3,7,8,8,9,10,8,–
Cc1nc(C(=O)C2=C(O)C(C)(C)C(=O)C(C)(C)C2=O)ccc1C#N [Compound 2.209],10,9,9,8,10,10,2,8,6,8,8,9,10,9,–
CC1CC(=O)C(C(=O)c2ccc(C(F)(F)F)c(N3CCOCC3)n2)=C(O)C1 (stereo not drawn) [Compound 3.069],10,10,6,10,10,10,5,8,10,7,5,8,7,8,–
CC1CCC(O)=C(C(=O)c2ccc(C(F)(F)F)c(N3CCOCC3)n2)C1=O (stereo not drawn) [Compound 3.071],9,8,6,10,10,10,8,8,10,8,7,9,8,8,–
CC1(C)CCC(O)=C(C(=O)c2ccc(C(F)(F)F)c(N3CCOCC3)n2)C1=O [Compound 3.072],9,3,8,10,10,9,7,7,9,7,7,8,8,8,–
CC1CC(O)=C(C(=O)c2ccc(C(F)(F)F)c(N3CCOCC3)n2)C(=O)C1(C)C (stereo not drawn) [Compound 3.073],5,0,7,9,7,10,7,4,9,8,7,7,7,7,–
